Measurements published in patent US12624057B2, “Bisphosphonate quinolone conjugates and uses thereof” (BIOVINC, LLC, priority 2016, dated 2026).
“Also recorded” adds a separate entry of the source.

Legend:
[1] = tested on: biofilms of Aggregatibacter actinomycetemcomitans grown on HA; experiment: Aa biofilms grown on HA; format: cell-based
[2] = tested on: biofilms of S. aureus strain ATCC-6538; experiment: Preformed biofilms on polystyrene, S. aureus; format: cell-based, Staphylococcus aureus
Protocol: (§1) Antimicrobial susceptibility testing of BP-ciprofloxacin against preformed biofilms of S. aureus strain ATCC-6538 and P. aeruginosa strain ATCC-15442: Strains cultured on appropriate agar plates (Columbia agar plate for S. aureus; MacConkey agar plate for P. aeruginosa) were transferred to liquid microbiological media and incubated for 24 h/37° C. under aerobic conditions. After incubation, strains were diluted to the density of 1 MF. The microbial dilutions were introduced to wells of 24-well plates containing HA discs as a substrate, or simply to polystyrene wells where the bottom surface of the wells served as the substrate for biofilm development. Strains were incubated at 37° C. for 4 hrs. Next, the microbe-containing solutions were removed from the wells. The surfaces, HA discs and polystyrene plates, were gently rinsed to leave adhered cells and to remove planktonic or loosely-bound microbes. Surfaces prepared in this manner were immersed in fresh TSB medium containing 0.24-125 mg/L of BP-ciprofloxacin conjugate. After 24 hrs of incubation at 37° C. the surfaces were rinsed using physiological saline solution and transferred to 1 mL of 0.5% saponin (Sigma-Aldrich, St Louis, MO). The surfaces were vortex-mixed vigorously for 1 minute to detach cells. Subsequently, all microbial suspensions were diluted 10 to 10^9 times. Each dilution ([…]) was cultured on the appropriate stable medium (MacConkey, Columbia for P. aeruginosa and S. aureus, respectively) and incubated at 37-C for 24 hours. After this time, the microbial colonies were counted and the number of cells forming biofilm was assessed. […]
(§2) Antimicrobial susceptibility testing of 6 against preformed biofilms of S. aureus strain ATCC-6538 and P. aeruginosa strain ATCC-15442: Strains cultured on appropriate agar plates (Columbia agar plate for S. aureus; MacConkey agar plate for P. aeruginosa) were transferred to liquid microbiological media and incubated for 24 hrs/37° C. under aerobic conditions. […] After this time, the microbial colonies were counted and the number of cells forming biofilm was assessed. […]

[3] = tested on: biofilms of P. aeruginosa strain ATCC-15442; experiment: Preformed biofilms on polystyrene, P. aeruginosa; format: cell-based, Pseudomonas aeruginosa; conditions: polystyrene substrate, tested range of concentrations
Protocol: as §1, §2

[4] = tested on: biofilms of S. aureus strain ATCC-6538; experiment: Preformed biofilms on HA discs, S. aureus; format: cell-based, Staphylococcus aureus; conditions: for bactericidal activity / reduction of CFUs against established biofilm (in words): HA as substrate
Protocol: Antimicrobial susceptibility testing of BP-ciprofloxacin against preformed biofilms of S. aureus strain ATCC-6538 and P. aeruginosa strain ATCC-15442: Strains cultured on appropriate agar plates (Columbia agar plate for S. aureus; MacConkey agar plate for P. aeruginosa) were transferred to liquid microbiological media and incubated for 24 h/37° C. under aerobic conditions. After incubation, strains were diluted to the density of 1 MF. The microbial dilutions were introduced to wells of 24-well plates containing HA discs as a substrate, or simply to polystyrene wells where the bottom surface of the wells served as the substrate for biofilm development. Strains were incubated at 37° C. for 4 hrs. Next, the microbe-containing solutions were removed from the wells. The surfaces, HA discs and polystyrene plates, were gently rinsed to leave adhered cells and to remove planktonic or loosely-bound microbes. Surfaces prepared in this manner were immersed in fresh TSB medium containing 0.24-125 mg/L of BP-ciprofloxacin conjugate. After 24 hrs of incubation at 37° C. the surfaces were rinsed using physiological saline solution and transferred to 1 mL of 0.5% saponin (Sigma-Aldrich, St Louis, MO). The surfaces were vortex-mixed vigorously for 1 minute to detach cells. Subsequently, all microbial suspensions were diluted 10 to 10^9 times. Each dilution ([…]) was cultured on the appropriate stable medium (MacConkey, Columbia for P. aeruginosa and S. aureus, respectively) and incubated at 37-C for 24 hours. After this time, the microbial colonies were counted and the number of cells forming biofilm was assessed. Results were presented as the mean number of CFU per square millimeter surface±standard error of the mean. To estimate the exact surface area of HA discs, x-ray tomographic analysis was applied. For estimation of the area of test plate bottoms, the equation for circle area: πr2 was applied.
Antimicrobial susceptibility testing of 6 against preformed biofilms of S. aureus strain ATCC-6538 and P. aeruginosa strain ATCC-15442: Strains cultured on appropriate agar plates (Columbia agar plate for S. aureus; MacConkey agar plate for P. aeruginosa) were transferred to liquid microbiological media and incubated for 24 hrs/37° C. under aerobic conditions. After incubation, strains were diluted to the density of 1 MF. The microbial dilutions were introduced to wells of 24-well plates containing HA discs as a substrate, or simply to polystyrene wells where the bottom surface of the wells served as the substrate for biofilm development. Strains were incubated at 37° C. for 4 hrs. Next, the microbe-containing solutions were removed from the wells. The surfaces, HA discs and polystyrene plates, were gently rinsed to leave adhered cells and to remove planktonic or loosely-bound microbes. […] After 24 hrs of incubation at 37° C. the surfaces were rinsed using physiological saline solution and transferred to 1 mL of 0.5% saponin (Sigma-Aldrich, St Louis, MO). The surfaces were vortex-mixed vigorously for 1 minute to detach cells. Subsequently, all microbial suspensions were diluted 10-1 to 10-9 times. Each dilution ([…]) was cultured on the appropriate stable medium (MacConkey, Columbia for P. aeruginosa and S. aureus, respectively) and incubated at 37° C. for 24 hrs. After this time, the microbial colonies were counted and the number of cells forming biofilm was assessed. Results were presented as the mean number of CFU per square millimeter surface±standard error of the mean. To calculate the surface area of HA discs, x-ray tomographic analysis was applied. For estimation of the area of test plate bottoms, the equation for circle area: πr^2 was applied.

[5] = tested on: Aggregatibacter actinomycetemcomitans biofilms on titanium implants; experiment: Rat jawbone peri-implant osteomyelitis model, first animal experiment; format: in vivo, Sprague-Dawley rats; conditions: conjugate, 0.3 mg/kg ×3 over a week (0.9 mg/kg total)
S. aureus 6538 = experiment: Preventative assay, HA spherules pretreated then inoculated with S. aureus; format: cell-based, Staphylococcus aureus
Protocol: Preventative ability of BP-ciprofloxacin conjugate to inhibit S. aureus 6538 adherence to HA spherules: Various BP-ciprofloxacin concentrations were introduced to HA powder (spherules) suspended in TSB microbiological medium. Solutions containing conjugate and HA spherules were introduced to wells of 24-well plates. Final concentrations of powder were 10 mg/1 mL, while final concentrations of the conjugate were 0.12-250 mg/L. Suspensions were left for 24 h/37° C./shaking. After 24 h, suspensions were removed from the wells and impulse-centrifuged to precipitate HA powder. Next, supernatant was very gently discarded and a fresh 1 mL of S. aureus of density 10^5 cfu/mL was introduced to the HA spherules. Subsequently, this solution was shaken, absorbance was measured using 580 nm wavelength and left for 24 h/37° C./shaking. After incubation absorbance was measured again and values from 0 hr and 24 hrs were compared to assess reduction of bacterial growth with regard to control sample one (bacterial suspension but no spherules) and control sample two (bacterial suspension+spherules but with no conjugate added). Additionally, solutions were impulse-centrifuged, supernatant was gently discarded, while bacteria-containing HA spherules were culture plated as before and quantitatively assessed. […]

[6] = HA discs as substrate (Example 1)
[7] = HA discs as substrate (Example 5)

| Compound | activity against Aa biofilm on HA (in words) [1] | concentration with effective antimicrobial profile ([1]; strain D7S-5 grown on HA) | minimal biofilm inhibitory concentration (MBIC50) ([2]; polystyrene substrate (Example 1)) | minimal biofilm inhibitory concentration (MBIC50) ([2]; polystyrene substrate (Example 5)) | MBIC90 ([2]; polystyrene substrate, tested range of concentrations) | MBIC50 [3] | MBIC90 [3] | MBIC50 ([3]; listed as BP-ciprofloxacin) | bactericidal activity / reduction of CFUs against established biofilm (in words) [4] | bactericidal activity / reduction of CFUs against established biofilm (in words) ([4]; listed as BP-ciprofloxacin) | bactericidal activity / reduction of CFUs against established biofilm (in words) ([4]; listed as conjugate) | MBIC50 [4, 6] | MBIC90 [4, 6] | MBIC50 [4, 7] | MBIC90 [4, 7] | bacterial killing [5] | recovery of bacteria (in words) [5] | recovery of bacteria (in words) ([5]; listed as BP-ciprofloxacin) | concentration giving the only significant reduction (S. aureus 6538) |
| --- | --- | --- | --- | --- | --- | --- | --- | --- | --- | --- | --- | --- | --- | --- | --- | --- | --- | --- | --- |
| O=C(O)c1cn(C2CC2)c2cc(N3CCN(C(=O)Oc4ccc(CC(P(=O)(O)O)P(=O)(O)O)cc4)CC3)c(F)cc2c1=O [Compound 6, 1-cyclopropyl-7-(4-((4-(2,2-diphosphonoethyl)phenoxy)carbonyl)piperazin-1-yl)-6-fluoro-4-oxo-1,4-dihydroquinoline-3-carboxylic acid] | effective antimicrobial activity | > 15 µg/mL | 15.6 to 31.2 µg/mL | 15.6 to 31.2 µg/mL | no MBIC90 was observed for either pathogen | No MBIC50 was observed | no MBIC90 was observed for either pathogen | no MBIC^50 was observed | statistically significant (p<0.05, Kruskal-Wallis test) bactericidal activity | statistically significant bactericidal activity | statistically significant bactericidal activity and reduction of colony forming units | 8 µg/mL | 50 µg/mL | 16 µg/mL | 100 µg/mL | 100% | no recoverable bacteria | no recovery of Aa; also recorded: no recoverable bacteria |  |
| O=C(O)c1cn(C2CC2)c2cc(N3CCNCC3)c(F)cc2c1=O [ciprofloxacin, reference compound] |  |  |  |  |  |  |  |  | statistically significant bactericidal activity |  |  |  | 8 µg/mL |  | 8 µg/mL |  |  |  | 400 µg/mL |
